Patent publication US12528816B2, “Substituted imidazo [1,2-b] pyridazines and [1, 2, 4] triazolo [ 4,3-b] pyridazines as camkii inhibitors” (Cardurion Pharmaceuticals, INC., priority 2020, dated 2026)

These compounds were tested against T1, human CaMKIIδ (Homo sapiens, UniProt Q13557) (assay: Evaluation of in vitro CaMKII inhibitory activity (binding assay, TR-FRET)). Settings: human CaMKIIδ, TR-FRET binding assay; class symbols A/B/C; read-out: Act (CaMKII inhibitory activity, binding assay).
T1 construct: Full-length, glutathione-S-transferase(GST)-tagged, human CaMKIIδ was purchased from Carna Biosciences; purchased Carna Biosciences (CaMKIIδ); Wako Pure Chemical Industries (calmodulin) 02-111
Procedure, shortened: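 Inhibitors, in eight concentrations of 4-fold dilution, were incubated 1 h at room temperature with a protein–fluorescent probe premix preformed 30 min on ice, containing calmodulin and terbium anti-GST antibody. Displacement read by TR-FRET in duplicate; IC50 by logistic fitting.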
Work on `C[C@@H](Cn1cnnn1)Oc1cc(-c2ccc3ncc(-c4cc(C#N)c[nH]c4=O)n3n2)ccc1F` [compound 220] yielded an IC50 of under 10 nM.
Work on `CNC(=O)c1ccc(-c2cnn3ccc(-c4ccc(F)c(O[C@@H](C)Cn5cnnn5)c4)nc23)cc1` [compound 37] yielded an IC50 of under 10 nM.
Compound `COCCCn1ncc(-c2cnc3ccc(-c4ccc(F)c(O[C@@H](C)Cn5cnnn5)c4)nn23)c1C#N` [compound 223, 4-[6-(4-fluoro-3-{[(2S)-1-(1H-tetrazol-1-yl)propan-2-yl]oxy}phenyl)imidazo[1,2-b]pyridazin-3-yl]-1-(3-methoxypropyl)-1H-pyrazole-5-carbonitrile] has an IC50 of under 10 nM.
`COC(=O)c1cccc(-n2cnc3ccc(-c4ccc(F)c(O[C@@H](C)Cn5cnnn5)c4)nc32)n1` [compound 188] gave an IC50 of under 10 nM.
In the case of `C[C@@H](Cn1cnnn1)Oc1cccc(-c2ccn3ncc(-c4cccc(C(=O)N5CCn6ncnc6C5)c4)c3n2)c1` [compound 110], the IC50 is reported as 10 to 100 nM.
`C[C@@H](Cn1cnnn1)Oc1cccc(-c2ccn3ncc(-c4cccc(C(=O)Nc5ccncc5)c4)c3n2)c1` [compound 82] was tested, and the IC50 was under 10 nM.
Compound `COC(=O)c1cccc(-c2cnn3ccc(-c4ccc(F)c(O[C@@H](C)Cn5cnnn5)c4)nc23)c1Cl` [compound 128] has an IC50 of 10 to 100 nM.
`C[C@@H](Cn1cnnn1)Oc1cc(-c2ccn3ncc(-c4cccs4)c3n2)ccc1F` [compound 3] was tested, and the IC50 was under 10 nM.
`CC(C)Oc1cccc(-c2cnc3ccc(-c4ccc(F)c(O[C@@H](C)Cn5cnnn5)c4)nn23)c1C#N` [compound 213] gave an IC50 of under 10 nM.
`C[C@@H](Cn1cnnn1)Oc1cc(-c2ccn3ncc(-c4cnccc4C#N)c3n2)ccc1F` [compound 138] showed an IC50 of under 10 nM.
For `COCCOc1ccccc1-c1cnn2ccc(-c3ccc(F)c(O[C@@H](C)Cn4cnnn4)c3)nc12` [compound 43], the IC50 was under 10 nM.
`C[C@@H](Cn1cnnn1)Oc1cccc(-c2ccn3ncc(-c4cccc(C(=O)NCCc5cccnc5)c4)c3n2)c1` [compound 108] was tested, and the IC50 was under 10 nM.
In the case of `C[C@@H](Cn1cnnn1)Oc1cccc(-c2ccn3ncc(-c4cccc(C(=O)NCC5CC5)c4)c3n2)c1` [compound 63], the IC50 is reported as under 10 nM.
`C[C@@H](Cn1cnnn1)Oc1cc(-c2ccn3ncc(-c4ccncc4)c3n2)ccc1F` [compound 21] gave an IC50 of under 10 nM.
`C[C@@H](Cn1cnnn1)Oc1cc(-c2ccn3ncc(-c4ccccc4C=O)c3n2)ccc1F` [compound 123] gave an IC50 of under 10 nM.
`C[C@@H](Cn1cnnn1)Oc1cc(-c2ccc3ncc(-c4cccc(OCCC5CCNCC5)c4C#N)n3n2)ccc1F` [compound 208] was tested, and the IC50 was under 10 nM.

Same assay, conditions: in vitro CaMKII inhibitory activity (binding assay), human CaMKIIδ; read-out: Act
Work on `C[C@@H](Cn1cnnn1)Oc1cccc(-c2ccc3ncc(-c4ccccc4C#N)n3n2)n1` [compound 425, 2-[6-(6-{[(2S)-1-(1H-tetrazol-1-yl)propan-2-yl]oxy}pyridin-2-yl)imidazo[1,2-b]pyridazin-3-yl]benzonitrile] yielded an IC50 of under 10 nM.
`C[C@@H](Cn1cnnn1)Oc1cccc(-c2ccc3ncc(-c4ccccc4C=O)n3n2)c1` [compound 303] was tested, and the IC50 was under 10 nM.
Work on `COc1ccnc(-n2cnc3ccc(-c4ccc(F)c(O[C@@H](C)Cn5cnnn5)c4)nc32)c1C#N` [compound 355] yielded an IC50 of under 10 nM.
`COc1ncccc1-c1cnc2ccc(-c3cccc(O[C@@H](C)Cn4cnnn4)c3)nn12` [compound 332] was tested, and the IC50 was under 10 nM.
Work on `C[C@@H](Cn1cnnn1)Oc1cccc(-c2ccc3ncc(-c4c(F)ccc(F)c4C#N)n3n2)n1` [compound 423] yielded an IC50 of under 10 nM.
In the case of `C[C@@H](Cn1cnnn1)Oc1cc(-c2ccc3ncc(-c4ccn5ccnc5c4C#N)n3n2)ccc1F` [compound 250], the IC50 is reported as under 10 nM.
`COc1ccnc(-c2c(F)nn3ccc(-c4cccc(O[C@@H](C)Cn5cnnn5)c4)nc23)c1C#N` [compound 377] gave an IC50 of 10 to 100 nM.
For `C[C@@H](Cn1cnnn1)Oc1ccnc(-c2ccc3ncn(-c4cc(F)ccc4C#N)c3n2)c1` [compound 330], the IC50 was under 10 nM.
Work on `C[C@@H](Cn1cnnn1)Oc1cccc(-c2ccc3ncc(-c4cc(F)cn(CC(F)F)c4=O)n3n2)c1` [compound 337] yielded an IC50 of under 10 nM.
